What was measured:
PI3Kα = PI3Kα (Homo sapiens, UniProt P42336); experiment: Z'-LYTE / Adapta biochemical kinase assay, PI3Kα; conditions: for inhibition at 0.1 µM: concentration of 100 nM/liter, read-out: Percent Inhibition of target enzymes, PI3K A
Excerpt: The Z′-LYTE® biochemical assay employs a fluorescence-based, coupled-enzyme format and is based on the differential sensitivity of phosphorylated and non-phosphorylated peptides to proteolytic cleavage. The peptide substrate is labeled with two fluorophores—one at each end—that make up a FRET pair. In the primary reaction, the kinase transfers the gamma-phosphate of ATP to a single tyrosine, serine or threonine residue in a synthetic FRET-peptide. In the secondary reaction, a site-specific protease recognizes and cleaves non-phosphorylated FRET-peptides. Phosphorylation of FRET-peptides suppresses cleavage by the Development Reagent. Cleavage disrupts FRET between the donor (i.e., coumarin) and acceptor (i.e., fluorescein) fluorophores on the FRET-peptide, whereas uncleaved, phosphorylated FRET-peptides maintain FRET. A ratiometric method, which calculates the ratio (the Emission Ratio) of donor emission to acceptor emission after excitation of the donor fluorophore at 400 nm, is used to quantitate reaction progress.
A significant benefit of this ratiometric method for quantitating reaction progress is the elimination of well-to-well variations in FRET-peptide concentration and signal intensities. As a result, the assay yields very high Z′-factor values (>0.7) at a low percent phosphorylation.
Both cleaved and uncleaved FRET-peptides contribute to the fluorescence signals and therefore to the Emission Ratio. The extent of phosphorylation of the FRET-peptide can be calculated from the Emission Ratio. The Emission Ratio will remain low if the FRET-peptide is phosphorylated (i.e., no kinase inhibition) and will be high if the FRET-peptide is non-phosphorylated (i.e., kinase inhibition).
Enzyme: The ADAPTA universal kinase assay is a homogenous, fluorescent based immunoassay for the detection of ADP. In contrast to ATP depletion assays, the ADAPTA assay is extremely sensitive to ADP formation such that a majority of the signal change occurs in the first 10-20% conversion of ATP to ADP. This makes the ADAPTA universal kinase assay ideally suited for use with low activity kinases.
The principle of the ADAPTA universal kinase assay is outlined below. The assay itself can be divided into two phases: a kinase reaction phase, and an ADP detection phase. In the kinase reaction phase, all components required for the kinase reaction are added to the well, and the reaction is allowed to incubate for 60 minutes. After the reaction, a detection solution consisting of a europium labeled anti-ADP antibody, an Alexa Fluor® 647 labeled ADP tracer, and EDTA (to stop the kinase reaction) is added to the assay well. ADP formed by the kinase reaction (in the absence of an inhibitor) will displace the Alexa Fluor® 647 labeled ADP tracer from the antibody, resulting in a decrease in the TR-FRET signal. In the presence of an inhibitor, the amount of ADP formed by the kinase reaction is reduced, and the resulting intact antibody-tracer interaction results in a high TR-FRET signal.
Test Compounds: The Test Compounds are screened in 1% DMSO (final) in the well. For 10 point titrations, 3-fold serial dilutions are conducted from the starting concentration of the customer’s choosing.
Peptide/Kinase Mixtures: All Peptide/Kinase Mixtures are diluted to a 2X working concentration in the appropriate Kinase Buffer.
ATP Solution: All ATP Solutions are diluted to a 4X working concentration in Kinase Buffer (50 mM HEPES pH 7.5, 0.01% BRIJ-35, 10 mM MgCl2,1 mM EGTA). ATP Km apparent is previously determined using a Z′-LYTE® assay.
Development Reagent Solution: The Development Reagent is diluted in Development Buffer.
Assay Protocol: Bar-coded Corning, low volume NBS, black 384-wellplate (Corning Cat. #4514) 1. 2.5 µL - 4X Test Compound or 100 nL 100X plus 2.4 µL kinase buffer. 2. 5 µL - 2X Peptide/Kinase Mixture. 3. 2.5 µL - 4X ATP Solution. 4. 30-second plate shake. 5. 60-minute Kinase Reaction incubation at room temperature. 6. 5 µL - Development Reagent Solution. 7. […]

PC-3 = experiment: NCI COMPARE panel (SRB growth inhibition), PC-3; format: cell-based; conditions: Homo sapiens; Prostate Cancer, PC-3, 48 h
Procedure: (§1) The human tumor cell lines of the cancer screening panel are grown in RPMI 1640 medium containing 5% fetal bovine serum and 2 mM L-glutamine. For a typical screening experiment, cells are inoculated into 96 well microtiter plates in 100 µL at plating densities ranging from 5,000 to 40,000 cells/well depending on the doubling time of individual cell lines. After cell inoculation, the microtiter plates are incubated at 37° C., 5% CO2, 95% air and 100% relative humidity for 24 h prior to addition of experimental drugs.
(§2) After 24 h, two plates of each cell line are fixed in situ with TCA, to represent a measurement of the cell population for each cell line at the time of drug addition (Tz). Experimental drugs are solubilized in dimethyl sulfoxide at 400-fold the desired final maximum test concentration and stored frozen prior to use. […]
(§3) Following drug addition, the plates are incubated for an additional 48 h at 37° C., 5 % CO2, 95% air, and 100% relative humidity. […] Bound stain is subsequently solubilized with 10 mM trizma base, and the absorbance is read on an automated plate reader at a wavelength of 515 nm. […] Using the seven absorbance measurements [time zero, (Tz), control growth, (C), and test growth in the presence of drug at the five concentration levels (Ti)], the percentage growth is calculated at each of the drug concentrations levels. Percentage growth inhibition is calculated as: […]

MCF7 = experiment: NCI COMPARE panel (SRB growth inhibition), MCF7; format: cell-based; conditions: Homo sapiens; Breast Cancer, MCF7, 48 h
Procedure: as §1, §2, §3

OVCAR-8 = experiment: NCI COMPARE panel (SRB growth inhibition), OVCAR-8; format: cell-based; conditions: Homo sapiens; Ovarian Cancer, OVCAR-8, 48 h
Procedure: as §1, §2, §3

Chain of PI3Kα (P42336 whole entry): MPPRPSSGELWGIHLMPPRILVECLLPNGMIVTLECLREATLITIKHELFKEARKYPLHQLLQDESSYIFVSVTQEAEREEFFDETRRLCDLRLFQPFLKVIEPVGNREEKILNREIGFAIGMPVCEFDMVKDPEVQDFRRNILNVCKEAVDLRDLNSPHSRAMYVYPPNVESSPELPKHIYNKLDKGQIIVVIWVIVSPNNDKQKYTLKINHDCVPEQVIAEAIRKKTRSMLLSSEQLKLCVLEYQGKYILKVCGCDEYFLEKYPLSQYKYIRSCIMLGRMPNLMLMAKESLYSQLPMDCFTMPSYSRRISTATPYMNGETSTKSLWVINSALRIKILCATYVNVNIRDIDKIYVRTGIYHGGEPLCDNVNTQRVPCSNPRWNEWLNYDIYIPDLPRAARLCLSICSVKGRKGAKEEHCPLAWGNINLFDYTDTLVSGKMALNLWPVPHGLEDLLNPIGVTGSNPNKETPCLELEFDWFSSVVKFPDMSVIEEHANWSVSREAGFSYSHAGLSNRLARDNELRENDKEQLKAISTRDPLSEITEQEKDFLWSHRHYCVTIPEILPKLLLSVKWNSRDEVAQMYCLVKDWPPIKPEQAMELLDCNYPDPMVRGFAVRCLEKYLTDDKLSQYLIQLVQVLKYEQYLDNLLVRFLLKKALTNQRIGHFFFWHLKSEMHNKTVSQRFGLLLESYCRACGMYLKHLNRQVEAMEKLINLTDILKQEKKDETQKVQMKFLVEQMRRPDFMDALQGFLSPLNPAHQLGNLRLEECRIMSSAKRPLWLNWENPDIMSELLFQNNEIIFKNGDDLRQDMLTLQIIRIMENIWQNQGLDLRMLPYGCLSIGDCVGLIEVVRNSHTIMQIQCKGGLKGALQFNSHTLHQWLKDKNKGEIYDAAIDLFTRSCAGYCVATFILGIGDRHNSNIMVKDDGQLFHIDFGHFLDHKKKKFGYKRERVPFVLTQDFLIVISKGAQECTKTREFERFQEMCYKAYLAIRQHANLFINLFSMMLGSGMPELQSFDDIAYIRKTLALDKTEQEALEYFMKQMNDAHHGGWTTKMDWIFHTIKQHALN
Chain of PI3Kα (P27986 whole entry partner): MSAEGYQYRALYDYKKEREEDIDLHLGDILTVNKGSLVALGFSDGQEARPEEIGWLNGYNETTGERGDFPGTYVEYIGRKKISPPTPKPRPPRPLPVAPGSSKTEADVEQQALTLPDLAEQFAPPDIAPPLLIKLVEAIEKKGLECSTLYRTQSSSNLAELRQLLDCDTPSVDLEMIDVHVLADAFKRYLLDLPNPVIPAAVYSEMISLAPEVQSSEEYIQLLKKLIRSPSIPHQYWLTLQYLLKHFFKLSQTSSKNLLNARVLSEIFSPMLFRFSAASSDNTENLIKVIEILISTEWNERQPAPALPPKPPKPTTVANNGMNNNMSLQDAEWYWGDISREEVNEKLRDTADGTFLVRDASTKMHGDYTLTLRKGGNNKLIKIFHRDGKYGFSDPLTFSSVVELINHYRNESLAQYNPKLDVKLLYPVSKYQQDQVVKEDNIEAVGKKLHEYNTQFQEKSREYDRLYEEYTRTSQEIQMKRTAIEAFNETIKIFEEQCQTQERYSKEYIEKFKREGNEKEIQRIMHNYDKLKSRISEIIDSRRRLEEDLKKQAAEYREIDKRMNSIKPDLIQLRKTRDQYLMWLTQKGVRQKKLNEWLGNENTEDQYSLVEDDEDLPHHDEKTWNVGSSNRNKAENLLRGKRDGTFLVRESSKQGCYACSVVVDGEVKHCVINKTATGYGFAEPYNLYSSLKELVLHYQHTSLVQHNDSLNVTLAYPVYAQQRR

| SMILES | IC50 (PI3Kα; PI3Kα) [nM] | inhibition at 0.1 µM (PI3Kα) [%] | GI50 (PC-3) [nM] | GI50 (MCF7) [nM] | GI50 (OVCAR-8) [nM] |
| --- | --- | --- | --- | --- | --- |
| CS(=O)(=O)Nc1cc(-c2ccc3ncnc(Nc4cccc(Cl)c4F)c3c2)cnc1Cl [Compound 6, N-[2-chloro-5-[4-(3-chloro-2-fluoro-anilino)quinazolin-6-yl]-3-pyridyl] methanesulfonamide] | ≤ 2 | > 90 | 125 to 250 | ≤ 75 | > 250 |
| CS(=O)(=O)Nc1cc(-c2ccc3ncc(C#N)c(Nc4cccc(Cl)c4F)c3c2)cnc1Cl [Compound 10, N-[2-chloro-5-[4-(3-chloro-2-fluoro-anilino)-3-cyano-6-quinolyl]-3-pyridyl]methanesulfonamide] | – | > 90 | 125 to 250 | ≤ 75 | > 250 |

— US20230133958A1, “COMPOUNDS USEFUL IN MODULATING EGFR AND PI3K” (Mekanistic Therapeutics LLC, priority 2021, published 2023)
